Measurements: US11390613B2, “Azole analogues and methods of use thereof” (UNIVERSITY OF CONNECTICUT, priority 2017, dated 2022)
In brackets after ≈: the same amount, converted by molar mass. Where two headings read alike, the source gives them in different places.

Assays:
[1] = Metabolic half-life and clearance (HLM); format: in vitro ADME
[2] = Parallel artificial membrane permeability assay (PAMPA); format: in vitro ADME; settings: passive permeability
Source text: (§1) Preliminary In Vitro Pharmacokinetic Assays.

[3] = system: primary murine Hh-dependent MB cell line (MERP); experiment: Antiproliferation in primary Hh-dependent MB cells (MERP); format: cell-based; settings: Mus musculus
Experimental: Secondary In Vitro Evaluation. Based on their activity in ASZ cells, several compounds were evaluated further in a primary murine Hh-dependent MB cell line (MERP).
(§2) General Information for Cell Culture Studies Protocols for general cell culture, qPCR, and Hh inhibition ASZ cells are as previously described.
(§3) General Information for Cell Culture Studies. Protocols for general cell culture, qPCR, and Hh inhibition ASZ cells are as previously described.

CYP3A4 = CYP3A4 (Homo sapiens, UniProt P08684); experiment: CYP3A4 inhibition
Experimental: Additionally, CYP3A4 inhibition and P-glycoprotein (P-gp) efflux of each compound were evaluated.

[4] = system: Gli1 mRNA levels in the murine BCC cell line ASZ-001 (Hh pathway); experiment: Hh pathway inhibition: endogenous Gli1 mRNA (qRT-PCR) in ASZ-001 cells; format: cell-based
Experimental: Initial Hh inhibition studies.
as §2, §3
Gene Expression Assay Protocol (ASZ-001): Cells are seeded (10,000 cells per well; 100 μL total volume per well) in a 96-well tissue culture plate. After 24 h of incubation (37° C., 5% CO2), growth media was removed and replaced with low FBS media. Cells were incubated for an additional 24 h. After this time, DMSO (vehicle control) and liposomes (Aqueous Solution) were added to the wells. […]
Rt-PCR Protocol: Following treatment and incubation periods, both RNA extraction and cDNA synthesis were performed using a TaqMan Cells-to-CT (fast) kit. cDNA synthesis utilized a BioRad MyCycler and was programmed according to the manufacturer's instructions. Quantitative RT-PCR was performed on an ABI 7500 system and made use of the following TaqMan Gene Expression Probes: mouse ActB (Mm00607939_s1) and mouse Gli1 (Mm00494654_m1). Relative gene expression levels were computed via ΔΔCT method using GraphPad Prism. Corresponding IC50 values were calculated as mean±SEM for at least three separate experiments performed in triplicate.

P-glycoprotein (P-gp) = P-glycoprotein (P-gp) (Homo sapiens, UniProt P08183); experiment: P-glycoprotein (P-gp) efflux; format: in vitro ADME; settings: Table P1
Source text: as §1

[5] = Mus musculus, ASZ001, Table P2, ASZ cells, Gli1 mRNA, 48 h incubation, read-out: IC50

Chain of CYP3A4 (P08684 whole entry): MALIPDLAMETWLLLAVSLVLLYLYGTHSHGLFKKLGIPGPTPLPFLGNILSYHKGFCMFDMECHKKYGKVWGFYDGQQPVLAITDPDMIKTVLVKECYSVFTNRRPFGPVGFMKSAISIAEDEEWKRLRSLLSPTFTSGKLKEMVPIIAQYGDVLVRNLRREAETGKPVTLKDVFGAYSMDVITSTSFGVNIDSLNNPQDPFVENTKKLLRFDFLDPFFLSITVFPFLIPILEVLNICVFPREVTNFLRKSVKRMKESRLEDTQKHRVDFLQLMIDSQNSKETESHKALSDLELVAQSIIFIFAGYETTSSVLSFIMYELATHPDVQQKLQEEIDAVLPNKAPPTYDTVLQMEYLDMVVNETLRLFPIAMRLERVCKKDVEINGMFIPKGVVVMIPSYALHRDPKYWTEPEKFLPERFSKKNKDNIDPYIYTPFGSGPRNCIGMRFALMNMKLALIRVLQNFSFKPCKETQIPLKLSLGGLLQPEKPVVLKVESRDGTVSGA
Chain of P-glycoprotein (P-gp) (P08183 whole entry): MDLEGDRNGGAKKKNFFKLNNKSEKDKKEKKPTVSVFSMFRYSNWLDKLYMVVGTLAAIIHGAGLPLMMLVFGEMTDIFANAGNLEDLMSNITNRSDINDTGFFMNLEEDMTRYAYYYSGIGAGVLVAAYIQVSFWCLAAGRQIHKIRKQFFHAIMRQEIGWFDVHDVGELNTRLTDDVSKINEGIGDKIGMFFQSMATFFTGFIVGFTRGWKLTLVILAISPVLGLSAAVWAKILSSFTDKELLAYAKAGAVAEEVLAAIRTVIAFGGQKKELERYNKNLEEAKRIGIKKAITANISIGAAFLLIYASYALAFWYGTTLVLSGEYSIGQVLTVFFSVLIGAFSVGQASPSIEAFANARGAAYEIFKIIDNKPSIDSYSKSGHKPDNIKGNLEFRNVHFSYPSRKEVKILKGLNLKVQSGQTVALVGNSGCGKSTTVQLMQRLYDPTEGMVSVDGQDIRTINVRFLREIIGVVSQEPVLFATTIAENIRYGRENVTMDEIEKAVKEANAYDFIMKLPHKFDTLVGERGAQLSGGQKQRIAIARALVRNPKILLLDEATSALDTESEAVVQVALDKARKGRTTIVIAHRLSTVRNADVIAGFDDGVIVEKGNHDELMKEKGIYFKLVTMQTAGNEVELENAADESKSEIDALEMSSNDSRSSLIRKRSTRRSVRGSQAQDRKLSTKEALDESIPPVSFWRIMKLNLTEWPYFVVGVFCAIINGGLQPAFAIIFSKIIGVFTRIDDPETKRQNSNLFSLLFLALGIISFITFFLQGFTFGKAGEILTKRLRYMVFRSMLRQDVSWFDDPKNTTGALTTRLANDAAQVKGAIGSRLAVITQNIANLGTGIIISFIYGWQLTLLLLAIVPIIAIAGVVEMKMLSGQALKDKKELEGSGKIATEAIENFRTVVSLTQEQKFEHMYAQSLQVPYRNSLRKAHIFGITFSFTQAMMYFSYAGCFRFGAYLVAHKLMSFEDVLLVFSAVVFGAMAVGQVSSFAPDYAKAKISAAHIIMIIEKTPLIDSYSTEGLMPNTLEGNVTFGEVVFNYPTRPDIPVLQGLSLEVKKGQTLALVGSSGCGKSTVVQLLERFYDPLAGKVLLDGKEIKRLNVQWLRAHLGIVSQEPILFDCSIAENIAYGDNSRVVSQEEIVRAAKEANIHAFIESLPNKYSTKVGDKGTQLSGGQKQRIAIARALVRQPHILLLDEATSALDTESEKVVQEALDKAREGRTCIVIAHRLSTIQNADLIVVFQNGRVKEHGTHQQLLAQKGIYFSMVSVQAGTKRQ

Row | Compound | IC50 [4, 5] | Solubility (Solubility) | T1/2 (HLM, min) [1] | other results
1 | C[C@@]1(c2ccc(Cl)cc2Cl)OC[C@@H](COc2ccc(N3CCN(c4ccc(NC(=O)c5cccnc5)cc4)CC3)cc2)O1 [Compound 13, N-(4-(4-(4-(((2R,4R)-2-(2,4-dichlorophenyl)-2-methyl-1,3-dioxolan-4-yl)methoxy)phenyl)piperazin-1-yl)phenyl)nicotinamide] |  | 4.2 nM (≈ 2.6 ng/mL) | significantly different half-lives | PAMPA [2]: Poor; IC50 ([3]; Table 6): > 10000 nM
2 | C[C@@]1(c2ccc(Cl)cc2Cl)OC[C@@H](COc2ccc(N3CCN(c4ccc(NC(=O)c5cccc(O)c5)cc4)CC3)cc2)O1 [Compound 27, N-(4-(4-(4-(((2R,4R)-2-(2,4-dichlorophenyl)-2-methyl-1,3-dioxolan-4-yl)methoxy)phenyl)piperazin-1-yl)phenyl)-3-hydroxybenzamide] |  | 1.4 nM (≈ 0.888 ng/mL) | >231 min | IC50 ([3]; Table 6): 2800 ± 1500 nM
3 | C[C@]1(c2ccc(Cl)cc2Cl)OC[C@@H](COc2ccc(N3CCN(c4ccc(NC(=O)c5cccc(O)c5)cc4)CC3)cc2)O1 [Compound 30, N-(4-(4-(4-(((2S,4R)-2-(2,4-dichlorophenyl)-2-methyl-1,3-dioxolan-4-yl)methoxy)phenyl)piperazin-1-yl)phenyl)-3-hydroxybenzamide] |  | 1.6 nM (≈ 1.02 ng/mL) | did not significantly change | IC50 (CYP3A4; read-out: CYP3A4, Table 9): 11400 nM; PAMPA [2]: Poor; IC50 ([3]; Table 6): 350 ± 60 nM
4 | CC(=O)c1cccc(C(=O)Nc2ccc(N3CCN(c4ccc(OC[C@@H]5CO[C@](C)(c6ccc(Cl)cc6Cl)O5)cc4)CC3)cc2)c1 [Compound 34, 3-acetyl-N-(4-(4-(4-(((2S,4R)-2-(2,4-dichlorophenyl)-2-methyl-1,3-dioxolan-4-yl)methoxy)phenyl)piperazin-1-yl)phenyl)benzamide] |  | 1.4 nM (≈ 0.925 ng/mL) | 11.4 ± 0.06 min | IC50 (CYP3A4): > 30000 nM; GI50 ([3]; Table 7): 1000 ± 300 nM
5 | C[C@@]1(c2ccc(Cl)cc2Cl)OC[C@@H](COc2ccc(N3CCN(c4ccc(NC(=O)NN)cc4)CC3)cc2)O1 [Compound 39, N-(4-(4-(4-(((2R,4R)-2-(2,4-dichlorophenyl)-2-methyl-1,3-dioxolan-4-yl)methoxy)phenyl)piperazin-1-yl)phenyl)hydrazinecarboxamide] |  | 9.3 nM (≈ 5.32 ng/mL) | 20.1 ± 0.6 min | IC50 (CYP3A4): > 30000 nM; IC50 ([3]; Table 8): 500 ± 400 nM
6 | C[C@]1(c2ccc(Cl)cc2Cl)OC[C@@H](COc2ccc(N3CCN(c4ccc(NC(=O)NN)cc4)CC3)cc2)O1 [Compound 40, N-(4-(4-(4-(((2S,4R)-2-(2,4-dichlorophenyl)-2-methyl-1,3-dioxolan-4-yl)methoxy)phenyl)piperazin-1-yl)phenyl)hydrazinecarboxamide] |  | 1.4 nM (≈ 0.801 ng/mL) | 11.5 ± 0.1 min | IC50 (CYP3A4): > 30000 nM; IC50 ([3]; Table 8): 2800 ± 900 nM
7 | CC1(c2ccc(Cl)cc2Cl)OCC(COc2ccc(N3CCN(c4ccc(-n5cnn(CCC(=O)O)c5=O)cc4)CC3)cc2)O1 (stereo not drawn) [Compound I17, 3-(4-(4-(4-(4-((2-(2,4-dichlorophenyl)-2-methyl-1,3-dioxolan-4-yl)methoxy)phenyl)piperazin-1-yl)phenyl)-5-oxo-4,5-dihydro-1H-1,2,4-triazol-1-yl)propanoic acid] | 12 ± 5 nM |  |  | 
8 | CC[C@@H](C)n1ncn(-c2ccc(N3CCN(c4ccc(OC[C@@H]5CO[C@@](C)(c6ccc(F)cc6F)C5)cc4)CC3)cc2)c1=O [Compound P1, 2-((R)-sec-butyl)-4-(4-(4-(4-(((3R,5R)-5-(2,4-difluorophenyl)-5-methyltetrahydrofuran-3-yl)methoxy)phenyl)-piperazin-1-yl)phenyl)-2,4-dihydro-3H-1,2,4-triazol-3-one] |  |  |  | P-gp (Efflux) (P-glycoprotein (P-gp)): No Efflux; CYP3A4 IC50 (μM) (CYP3A4; Table P1): decreased CYP3A4 inhibition; IC50 (CYP3A4; human): > 20000 nM; IC50 ([3]; Table P1): 610 ± 120 nM; times more potent than PSZ ([4]; ASZ cells, IC50 ratio vs PSZ): 2.5 times; IC50 ([4]; Mus musculus, ASZ001, Table P1, ASZ cells, Gli1 mRNA, 48 h incubation, read-out: IC50): 190 nM
9 | C[C@]1(c2ccc(F)cc2F)C[C@H](COc2ccc(N3CCN(c4ccc(NC(=O)Oc5ccccc5)cc4)CC3)cc2)CO1 [Compound P21, phenyl (4-(4-(4-(((3R,5R)-5-(2,4-difluorophenyl)-5-methyltetrahydrofuran-3-yl)methoxy)phenyl)piperazin-1-yl)phenyl)carbamate] |  |  |  | IC50 ([4]; Mus musculus, ASZ001, 48 h): > 10000 nM
10 | C[C@]1(c2ccc(F)cc2F)C[C@H](COc2ccc(N3CCN(c4ccc(NC(=O)c5cccnc5)cc4)CC3)cc2)CO1 [Compound P26, N-(4-(4-(4-(((3R,5R)-5-(2,4-difluorophenyl)-5-methyltetrahydrofuran-3-yl)methoxy)phenyl)piperazin-1-yl)phenyl)nicotinamide] |  |  |  | IC50 ([4]; Table P2, ASZ cells, Gli1 mRNA, 48 h incubation, read-out: IC50): 38 nM

The next lines start with results.

Row | IC50 [4, 5] | Compound | Solubility (Solubility) | T1/2 (HLM, min) [1] | other results
11 | 32 ± 10 nM | C[C@]1(c2ccc(F)cc2F)C[C@H](COc2ccc(N3CCN(c4ccc(-n5cnn(CCC(=O)O)c5=O)cc4)CC3)cc2)CO1 [Compound P13, 3-(4-(4-(4-(4-(((3R,5R)-5-(2,4-difluorophenyl)-5-methyltetrahydrofuran-3-yl)methoxy)phenyl)piperazin-1-yl)phenyl)-5-oxo-4,5-dihydro-1H-1,2,4-triazol-1-yl)propanoic acid] |  |  | 
12 | 150 ± 20 nM | C[C@]1(c2ccc(F)cc2F)C[C@H](COc2ccc(N3CCN(c4ccc(-n5cnn(CC(=O)O)c5=O)cc4)CC3)cc2)CO1 [Compound P14, 2-(4-(4-(4-(4-(((3R,5R)-5-(2,4-difluorophenyl)-5-methyltetrahydrofuran-3-yl)methoxy)phenyl)piperazin-1-yl)phenyl)-5-oxo-4,5-dihydro-1H-1,2,4-triazol-1-yl)acetic acid] |  |  | 
13 | 20 ± 10 nM | C[C@]1(c2ccc(F)cc2F)C[C@H](COc2ccc(N3CCN(c4ccc(-n5cnn(CCCO)c5=O)cc4)CC3)cc2)CO1 [Compound P15, 4-(4-(4-(4-(((3R,5R)-5-(2,4-difluorophenyl)-5-methyltetrahydrofuran-3-yl)methoxy)phenyl)piperazin-1-yl)phenyl)-2-(3-hydroxypropyl)-2,4-dihydro-3H-1,2,4-triazol-3-one] |  |  | 
14 | 740 ± 150 nM | C[C@]1(c2ccc(F)cc2F)C[C@H](COc2ccc(N3CCN(c4ccc([N+](=O)[O-])cc4)CC3)cc2)CO1 [Compound P19, 1-(4-(((3R,5R)-5-(2,4-difluorophenyl)-5-methyltetrahydrofuran-3-yl)methoxy)phenyl)-4-(4-nitrophenyl)piperazine] |  |  | 
15 | 330 ± 120 nM | C[C@]1(c2ccc(F)cc2F)C[C@H](COc2ccc(N3CCN(c4ccc(N)cc4)CC3)cc2)CO1 [Compound P20, 4-(4-(4-(((3R,5R)-5-(2,4-difluorophenyl)-5-methyltetrahydrofuran-3-yl)methoxy)phenyl)piperazin-1-yl)aniline] |  |  | 
16 | 220 ± 80 nM | C[C@]1(c2ccc(F)cc2F)C[C@H](COc2ccc(N3CCN(c4ccc(NC(=O)NN)cc4)CC3)cc2)CO1 [Compound P22, N-(4-(4-(4-(((3R,5R)-5-(2,4-difluorophenyl)-5-methyltetrahydrofuran-3-yl)methoxy)phenyl)piperazin-1-yl)phenyl)hydrazinecarboxamide] |  |  | 
17 | 190 ± 100 nM | C[C@]1(c2ccc(F)cc2F)C[C@H](COc2ccc(N3CCN(c4ccc(-n5cn[nH]c5=O)cc4)CC3)cc2)CO1 [Compound P23, 4-(4-(4-(4-(((3R,5R)-5-(2,4-difluorophenyl)-5-methyltetrahydrofuran-3-yl)methoxy)phenyl)piperazin-1-yl)phenyl)-2,4-dihydro-3H-1,2,4-triazol-3-one] |  |  | 
18 | 24 ± 9 nM | CC(=O)c1cccc(C(=O)Nc2ccc(N3CCN(c4ccc(OC[C@@H]5CO[C@@](C)(c6ccc(F)cc6F)C5)cc4)CC3)cc2)c1 [Compound P24, 3-acetyl-N-(4-(4-(4-(((3R,5R)-5-(2,4-difluorophenyl)-5-methyltetrahydrofuran-3-yl)methoxy)phenyl)piperazin-1-yl)phenyl)benzamide] |  |  | 
19 | 190 ± 30 nM | C[C@]1(c2ccc(F)cc2F)C[C@H](COc2ccc(N3CCN(c4ccc(NC(=O)c5cccc(O)c5)cc4)CC3)cc2)CO1 [Compound P25, N-(4-(4-(4-(((3R,5R)-5-(2,4-difluorophenyl)-5-methyltetrahydrofuran-3-yl)methoxy)phenyl)piperazin-1-yl)phenyl)-3-hydroxybenzamide] |  |  | 
